Values of other authors, collected in patent US20050095286A1, “Extended release compositions” (Fabre Kramer Pharmaceuticals, Inc., priority 2003, published 2005).

How the values were obtained:
[1] = target: D2-receptor binding sites (Homo sapiens, UniProt P14416); settings: background statement, U.S. Pat. No. 5,010,078
[2] = target: T1, 5-HT1A receptor binding sites (Homo sapiens, UniProt P08908); settings: background statement, U.S. Pat. No. 5,010,078
T1 sequence (P08908 1-422): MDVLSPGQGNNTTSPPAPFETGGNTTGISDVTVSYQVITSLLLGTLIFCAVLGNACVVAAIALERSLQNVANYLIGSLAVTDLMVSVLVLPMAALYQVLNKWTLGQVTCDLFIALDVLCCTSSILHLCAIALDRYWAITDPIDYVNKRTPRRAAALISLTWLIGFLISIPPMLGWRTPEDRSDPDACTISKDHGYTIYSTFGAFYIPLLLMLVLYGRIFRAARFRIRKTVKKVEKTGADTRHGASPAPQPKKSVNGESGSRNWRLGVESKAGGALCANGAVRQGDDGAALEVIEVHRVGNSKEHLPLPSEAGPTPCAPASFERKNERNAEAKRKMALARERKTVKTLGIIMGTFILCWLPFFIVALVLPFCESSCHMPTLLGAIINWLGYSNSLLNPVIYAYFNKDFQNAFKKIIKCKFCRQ

5HT1a-receptors = target: T2, 5HT1a-receptors (Homo sapiens, UniProt P08908); settings: background statement
T2 sequence (P08908 1-422): T1 sequence (P08908 1-422)

[3] = background statement

Sequence of D2-receptor binding sites (P14416 whole entry): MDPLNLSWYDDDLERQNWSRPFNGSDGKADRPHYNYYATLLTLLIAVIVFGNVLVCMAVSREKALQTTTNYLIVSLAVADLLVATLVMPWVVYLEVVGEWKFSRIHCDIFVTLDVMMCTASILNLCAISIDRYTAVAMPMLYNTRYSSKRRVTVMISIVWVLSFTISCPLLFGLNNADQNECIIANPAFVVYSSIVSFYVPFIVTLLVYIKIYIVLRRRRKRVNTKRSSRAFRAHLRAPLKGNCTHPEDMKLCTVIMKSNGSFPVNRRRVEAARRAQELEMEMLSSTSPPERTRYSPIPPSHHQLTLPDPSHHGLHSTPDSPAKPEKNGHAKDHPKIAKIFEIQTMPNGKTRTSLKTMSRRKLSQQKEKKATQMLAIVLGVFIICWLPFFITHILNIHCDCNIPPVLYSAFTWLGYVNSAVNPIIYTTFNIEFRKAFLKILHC

Compound	affinity for the D2-receptor binding site [1]	affinity for the 5-HT1A receptor binding site [2]	selectivity at the 5-HT1A and 5-HT2 versus D2 receptor binding sites [2]	affinity to 5HT1a-receptors (5HT1a-receptors)	therapeutic index [3]
O=C(NCCN1CCN(c2ncccn2)CC1)[C@]12C[C@H]3C[C@@H](C[C@H](C3)C1)C2 [adatanserin]	high affinity	high affinity	demonstrated selectivity	–	–
Cl.O=c1c(CO)coc2cc(OCCCN3CCC(c4noc5cc(F)ccc45)CC3)ccc12 [abaperidone]	–	–	–	high affinity	high therapeutic index
